Experimental data reported in patent publication EP4699608A1, “COMPOSITION FOR PREVENTING OR TREATING CANCER PAIN” (Maruishi Pharmaceutical Co., Ltd., priority 2023, dated 2024).

Assays:
[1] = test system: cancer pain model rats; assay: Pain threshold in cancer pain model rats (MRMT-1 bone metastasis model, Dynamic Plantar Aesthesiometer); assay type: in vivo; settings: for cancer pain threshold: single dose, day 11 after MRMT-1 transplantation, plantar surface of right hind paw, compared to control group (Dunnett's test, 1%); for pain threshold-time area under the curve (AUC): up to 24 hours after administration, compared to morphine 3 mg/kg subcutaneous
Procedure: Five-week-old female Crl:CD(SD) SPF rats (Charles River Japan) were injected with MRMT-1 cells (rat breast cancer cells) at 3 × 10^4 cells/20 µL/ body into the medullary cavity at the proximal end of the diaphysis of the right tibia to create a bone metastasis model (day 0). On day 10 after the transplantation of the cancer cells (day 10), the rats were divided into 4 groups of 8 rats each: a control group (with administration of distilled water (trade name: Otsuka Distilled Water) manufactured by Otsuka Pharmaceutical Factory, Inc.), a 10 mg/kg compound A administration group, a 30 mg/kg compound A administration group, and a morphine administration group, as shown in Table 1 below. On day 11 after the transplantation of the cancer cells (day 11), each drug was orally or subcutaneously administered to the rats at a dose of 2 mL/kg. The pain threshold (g) of the plantar surface of the right hind paw was measured using a Dynamic Plantar Aesthesiometer (37450, Ugo Basile) under blinded conditions 1, 3, 6, and 24 hours after the administration. The average value of the pain threshold-time area under the curve (AUC) (g·hr) for 24 hours post-administration was determined for each group.

[2] = test system: rats; assay: Coordinated motor ability (rotarod); assay type: in vivo; settings: 10 rotations/min, cutoff 180 seconds, compared to control group
Procedure: Five- to six-week-old male SD-SPF rats (Japan SLC, Inc.) were used in this experiment. The experimental schedule included training using a rotarod (SN445, Shinano Seisakusyo) for 3 days (6 times a day), starting from 3 days before the day of administration. On the day of administration, pre-values (time to stay on the rotarod before the administration of compound A or distilled water) were measured twice, and the rats that spent 180 seconds or more on the rotarod in either of the two measurements were selected. The rats were divided into 3 groups of 6 rats each: a control group (with administration of distilled water (trade name: Otsuka Distilled Water) manufactured by Otsuka Pharmaceutical Factory, Inc.), a 10 mg/kg compound A administration group, and a 30 mg/kg compound A administration group, as shown in Table 3 below. Compound A or distilled water was orally administered to the rats at a dose of 10 mL/kg, and the time to stay on the rotarod was measured 1, 3, 6, and 24 hours after the administration under the test conditions of 10 rotations/min with a cutoff of 180 seconds.

[3] = test system: mice; assay: Spontaneous locomotor activity (Supermex); assay type: in vivo; settings: measured for 30 minutes, 1 or 3 hours after administration, compared to control group
Procedure: Five- to six-week-old male ICR-SPF mice (Japan SLC, Inc.) were divided into 5 groups of 8 mice each: a control group (with administration of distilled water (trade name: Otsuka Distilled Water) manufactured by Otsuka Pharmaceutical Factory, Inc.), two 10 mg/kg compound A administration groups, and two 30 mg/kg compound A administration groups, as shown in Table 2 below. Compound A or distilled water at a dose of 10 mL/kg was orally administered to the mice. One or three hours after the administration of compound A or distilled water, the mice were transferred to a measurement cage, and spontaneous locomotor activity was measured for 30 minutes using Supermex (registered trademark) (Muromachi Kikai Co., Ltd.).

[4] = test system: rats; settings: at a dose lower than that required to exert an analgesic effect; cited from earlier work

Row | Compound | cancer pain threshold ([1]; 10 mg/kg oral) | pain threshold-time area under the curve (AUC) ([1]; 10 mg/kg oral) | cancer pain threshold ([1]; 30 mg/kg oral) | pain threshold-time area under the curve (AUC) ([1]; 30 mg/kg oral) | coordinated motor ability (time to stay on the rotarod) ([2]; 10 mg/kg oral, 1, 3, 6 and 24 hours after administration) | coordinated motor ability (time to stay on the rotarod) ([2]; 30 mg/kg oral, 1, 3, 6 and 24 hours after administration) | spontaneous locomotor activity (amount of activity) ([3]; 10 mg/kg oral) | spontaneous locomotor activity (amount of activity) ([3]; 30 mg/kg oral) | influences on the central nervous system (coordinated motor ability) [4]
1 | NC1CCN(c2cccc(Cl)n2)CC1 [compound A, 1-(6-chloropyridin-2-yl)piperidin-4-amine] | significantly increased | no statistically significant difference | significantly increased | no statistically significant difference | no significant changes in the coordinated motor ability | no significant changes in the coordinated motor ability | no significant changes in the amount of activity | no significant changes in the amount of activity | 
2 | CC(C)C[C@H](CN)CC(=O)O [pregabalin, Pregabalin] |  |  |  |  |  |  |  |  | inhibits coordinated motor ability
